Test results as given in US20220175728A1, “PHARMACEUTICAL USE OF CHLOROPHYLLIDE FOR ANTI-VIRAL INFECTION” (I-SHOU UNIVERSITY, priority 2020, published 2022).

Assays:
Assay type in all cases: cell-based
[1] = tested on: Zika virus; assay: Zika micro-neutralization test; settings: Vero cells, MOI 0.1, 4 to 5 days
Description: (§1) African green monkey kidney Vero cells were infected with Zika virus at an MOI of 0.1 in the presence of chlorophyllide at indicated dosages, and then incubated for 4 to 5 days, followed by the micro-neutralization test.

[2] = tested on: chikungunya virus; assay: Chikungunya micro-neutralization test; settings: Vero cells, MOI 0.001, 3 days
Description: (§2) African green monkey kidney Vero cells were infected with chikungunya virus at an MOI of 0.001 in the presence of chlorophyllide at indicated dosages, and then incubated for 3 days, followed by the micro-neutralization test.

[3] = tested on: African green monkey kidney Vero cells; assay: Cytotoxicity, control group of chikungunya micro-neutralization test; settings: 3 days
Description: as §2

[4] = tested on: African green monkey kidney Vero cells; assay: Cytotoxicity, control group of Zika micro-neutralization test; settings: 4 to 5 days
Description: as §1

For chlorophyllide, the “EC50 for antiviral activity against Zika” value [1] was 12.5 µg/mL, the “EC50 for antiviral activity against chikungunya” value [2] was 18.75 µg/mL and the cytotoxicity dose [3] was “greater than 100 μg/mL”. The cytotoxicity dose [4] was “greater than 100 μg/mL”.
